# Test results as given in patent US9833497B2, “Human originated EGF domain proteins and use of the same” (CHENGDU SOURCEBIO LIMITED-LIABILITY COMPANY, priority 2013, dated 2017).
# Tests used:
# Assay type in all cases: cell-based
# E. coli BL21 = assay: MIC against Gram-negative bacteria: E. coli BL21; conditions: for MIC E. coli BL21 / MIC against E. coli BL21 / MIC (μg/mL) E. coli BL21: 5×10^5 CFU/mL; for MIC / MIC against E. coli BL21 / MIC (μg/mL) E. coli BL21: E. coli BL21
# In short: (§1)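 Bacteria grown in LB at 37° C with shaking to McFarland 0.5, pelleted and resuspended in fresh LB, then seeded at 5×10^5 CFU/mL per well. Purified recombinant human EGF domain proteins were two-fold serially diluted in triplicate and plates shaken at 37° C, 175 rpm. MIC is the lowest protein concentration with no bacterial growth.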
# Pseudomonas aeruginosa = assay: MIC against Gram-negative bacteria: Pseudomonas aeruginosa; conditions: for MIC P. aeruginosa / MIC against P. aeruginosa / MIC (μg/mL) P. aeruginosa: 5×10^5 CFU/mL
# In short: as §1
# Proteus mirabilis = assay: MIC against Gram-negative bacteria: Proteus mirabilis; conditions: for MIC P. mirabilis / MIC against P. mirabilis / MIC (μg/mL) P. mirabilis: 5×10^5 CFU/mL
# In short: as §1
# E. coli DH5α = assay: Antibacterial activity: MIC and growth curve against E. coli DH5α in 96-well plate; conditions: minimal inhibitory concentration against E. coli DH5α; 96-well plate, 5×10^5 CFU/mL, 37° C., judged after 8 h
# In short: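 Log-phase DH5α (OD600 about 0.5, 37° C, 185 rpm in LB) was pelleted, resuspended in fresh LB and seeded at 5×10^5 CFU/mL with recombinant protein at 50, 25 and 12.5 μg/mL (two-fold series), in triplicate. Plates were shaken at 175 rpm, 37° C, and OD600 was read every 30 min. MIC was the lowest concentration with no growth.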
# Aeromonas hydrophila = assay: MIC against Gram-negative bacteria: Aeromonas hydrophila; conditions: for MIC A. hydrophila / MIC against A. hydrophila / MIC (μg/mL) A. hydrophila: 5×10^5 CFU/mL
# In short: as §1
# Serratia marcescens = assay: MIC against Gram-negative bacteria: Serratia marcescens; conditions: for MIC S. marcescens / MIC against S. marcescens / MIC (μg/mL) S. marcescens: 5×10^5 CFU/mL
# In short: as §1
# Klebsiella pneumonia = assay: MIC against Gram-negative bacteria: Klebsiella pneumonia; conditions: for MIC K. pneumonia / MIC against K. pneumonia / MIC (μg/mL) K. pneumonia: 5×10^5 CFU/mL
# In short: as §1
# Enterobacter cloacae = assay: MIC against Gram-negative bacteria: Enterobacter cloacae; conditions: for MIC E. cloacae / MIC against E. cloacae / MIC (μg/mL) E. cloacae: 5×10^5 CFU/mL
# In short: as §1
# Proteus vulgaris = assay: MIC against Gram-negative bacteria: Proteus vulgaris; conditions: for MIC P. vulgaris / MIC against P. vulgaris / MIC (μg/mL) P. vulgaris: 5×10^5 CFU/mL
# In short: as §1
# Citrobacter diversus = assay: MIC against Gram-negative bacteria: Citrobacter diversus; conditions: for MIC C. diversus / MIC against C. diversus / MIC (μg/mL) C. diversus: 5×10^5 CFU/mL
# In short: as §1
# Moraxella catarrhalis = assay: MIC against Gram-negative bacteria: Moraxella catarrhalis; conditions: for MIC M. catarrhalis / MIC against M. catarrhalis / MIC (μg/mL) M. catarrhalis: 5×10^5 CFU/mL
# In short: as §1
# [1] = 10 h cultivation at 37° C., two-fold serial dilution
# [2] = P. aeruginosa, 10 h cultivation at 37° C.
# [3] = P. mirabilis, 10 h cultivation at 37° C.
# [4] = A. hydrophila, 10 h cultivation at 37° C.
# [5] = S. marcescens, 10 h cultivation at 37° C.
# [6] = K. pneumonia, 10 h cultivation at 37° C.
# [7] = E. cloacae, 10 h cultivation at 37° C.
# [8] = P. vulgaris, 10 h cultivation at 37° C.
# [9] = C. diversus, 10 h cultivation at 37° C.
# [10] = M. catarrhalis, 10 h cultivation at 37° C.
# [11] = Pseudomonas aeruginosa, 10 h cultivation at 37° C.
# [12] = Proteus mirabilis, 10 h cultivation at 37° C.
# [13] = Aeromonas hydrophila, 10 h cultivation at 37° C.
# [14] = Serratia marcescens, 10 h cultivation at 37° C.
# [15] = Klebsiella pneumonia, 10 h cultivation at 37° C.
# [16] = Enterobacter cloacae, 10 h cultivation at 37° C.
# [17] = Proteus vulgaris, 10 h cultivation at 37° C.
# [18] = Citrobacter diversus, 10 h cultivation at 37° C.
# [19] = Moraxella catarrhalis, 10 h cultivation at 37° C.
substance,measurement,setting,value
PRT1079 (DQCSLNNGGCSHNCSVAPGEGIVCSCPLGMELGPDNHTCQ; listed as Homo sapiens),MIC E. coli BL21,E. coli BL21; [1],12.5 µg/mL
same,MIC P. aeruginosa,Pseudomonas aeruginosa; [1],50 µg/mL
same,MIC P. mirabilis,Proteus mirabilis; [1],50 µg/mL
same,MIC,E. coli DH5α,50 µg/mL
same,MIC A. hydrophila,Aeromonas hydrophila; [1],12.5 µg/mL
same,MIC S. marcescens,Serratia marcescens; [1],12.5 µg/mL
same,MIC K. pneumonia,Klebsiella pneumonia; [1],12.5 µg/mL
same,MIC E. cloacae,Enterobacter cloacae; [1],50 µg/mL
same,MIC P. vulgaris,Proteus vulgaris; [1],50 µg/mL
same,MIC C. diversus,Citrobacter diversus; [1],50 µg/mL
same,MIC M. catarrhalis,Moraxella catarrhalis; [1],12.5 µg/mL
PRT947 (NIDDCARGPHCLNGGQCMDRIGGYSCRCLPGFAGERCE; listed as Homo sapiens),MIC,E. coli BL21; 10 h cultivation at 37° C.,50 µg/mL
same,MIC,Pseudomonas aeruginosa; [2],12.5 µg/mL
same,MIC,Proteus mirabilis; [3],25 µg/mL
same,MIC,E. coli DH5α,12.5 µg/mL
same,MIC,Aeromonas hydrophila; [4],50 µg/mL
same,MIC,Serratia marcescens; [5],12.5 µg/mL
same,MIC,Klebsiella pneumonia; [6],50 µg/mL
same,MIC,Enterobacter cloacae; [7],12.5 µg/mL
same,MIC,Proteus vulgaris; [8],50 µg/mL
same,MIC,Citrobacter diversus; [9],25 µg/mL
same,MIC,Moraxella catarrhalis; [10],12.5 µg/mL
PRT912 (DVNECLSNPCDARGTQNCVQRVNDFHCECRAGHTGRRCE; listed as Homo sapiens),MIC,E. coli BL21; 10 h cultivation at 37° C.,12.5 µg/mL
same,MIC,Pseudomonas aeruginosa; [2],25 µg/mL
same,MIC,Proteus mirabilis; [3],50 µg/mL
same,MIC,E. coli DH5α,25 µg/mL
same,MIC,Aeromonas hydrophila; [4],100 µg/mL
same,MIC,Serratia marcescens; [5],50 µg/mL
same,MIC,Klebsiella pneumonia; [6],50 µg/mL
same,MIC,Enterobacter cloacae; [7],25 µg/mL
same,MIC,Proteus vulgaris; [8],100 µg/mL
same,MIC,Citrobacter diversus; [9],50 µg/mL
same,MIC,Moraxella catarrhalis; [10],12.5 µg/mL
PRT618 (CDCDPAGIAGPCDAGRCVCKPAVTGERCDRCRSGYYNLDGGNPEGCTQ; listed as Homo sapiens),MIC E. coli BL21,"E. coli BL21; 96-well plate, 37° C., 10 h",25 µg/mL
same,MIC P. aeruginosa,"Pseudomonas aeruginosa; 96-well plate, 37° C., 10 h",12.5 µg/mL
same,MIC P. mirabilis,"Proteus mirabilis; 96-well plate, 37° C., 10 h",12.5 µg/mL
same,MIC,E. coli DH5α,50 µg/mL
same,MIC A. hydrophila,"Aeromonas hydrophila; 96-well plate, 37° C., 10 h",50 µg/mL
same,MIC S. marcescens,"Serratia marcescens; 96-well plate, 37° C., 10 h",25 µg/mL
same,MIC K. pneumonia,"Klebsiella pneumonia; 96-well plate, 37° C., 10 h",50 µg/mL
same,MIC E. cloacae,"Enterobacter cloacae; 96-well plate, 37° C., 10 h",12.5 µg/mL
same,MIC P. vulgaris,"Proteus vulgaris; 96-well plate, 37° C., 10 h",50 µg/mL
same,MIC C. diversus,"Citrobacter diversus; 96-well plate, 37° C., 10 h",12.5 µg/mL
same,MIC M. catarrhalis,"Moraxella catarrhalis; 96-well plate, 37° C., 10 h",50 µg/mL
PRT1475 (DINECKDPSNINGGCSQICDNTPGSYHCSCKNGFVMLSNKKDCK; listed as Homo sapiens),MIC against E. coli BL21,E. coli BL21; 10 h cultivation at 37° C.,12.5 µg/mL
same,MIC against P. aeruginosa,Pseudomonas aeruginosa; [11],12.5 µg/mL
same,MIC against P. mirabilis,Proteus mirabilis; [12],25 µg/mL
same,MIC,E. coli DH5α,25 µg/mL
same,MIC against A. hydrophila,Aeromonas hydrophila; [13],12.5 µg/mL
same,MIC against S. marcescens,Serratia marcescens; [14],12.5 µg/mL
same,MIC against K. pneumonia,Klebsiella pneumonia; [15],12.5 µg/mL
same,MIC against E. cloacae,Enterobacter cloacae; [16],25 µg/mL
same,MIC against P. vulgaris,Proteus vulgaris; [17],12.5 µg/mL
same,MIC against C. diversus,Citrobacter diversus; [18],25 µg/mL
same,MIC against M. catarrhalis,Moraxella catarrhalis; [19],12.5 µg/mL
PRT1408 (NEICSVDCGSHGVCMGGTCRCEEGWTGPACNQ; listed as Homo sapiens),MIC against E. coli BL21,E. coli BL21; 10 h cultivation at 37° C.,12.5 µg/mL
same,MIC against P. aeruginosa,Pseudomonas aeruginosa; [11],25 µg/mL
same,MIC against P. mirabilis,Proteus mirabilis; [12],12.5 µg/mL
same,MIC,E. coli DH5α,25 µg/mL
same,MIC against A. hydrophila,Aeromonas hydrophila; [13],12.5 µg/mL
same,MIC against S. marcescens,Serratia marcescens; [14],25 µg/mL
same,MIC against K. pneumonia,Klebsiella pneumonia; [15],12.5 µg/mL
same,MIC against E. cloacae,Enterobacter cloacae; [16],25 µg/mL
same,MIC against P. vulgaris,Proteus vulgaris; [17],12.5 µg/mL
same,MIC against C. diversus,Citrobacter diversus; [18],12.5 µg/mL
same,MIC against M. catarrhalis,Moraxella catarrhalis; [19],12.5 µg/mL
PRT1002 (FPDPCQNAQLCQNGGSCQALLPAPLGLPSSPSPLTPSFLCTCLPGFTGERCQ; listed as Homo sapiens),MIC,E. coli BL21; 10 h cultivation at 37° C.,12.5 µg/mL
same,MIC,Pseudomonas aeruginosa; [2],25 µg/mL
same,MIC,Proteus mirabilis; [3],25 µg/mL
same,MIC,E. coli DH5α,25 µg/mL
same,MIC,Aeromonas hydrophila; [4],50 µg/mL
same,MIC,Serratia marcescens; [5],12.5 µg/mL
same,MIC,Klebsiella pneumonia; [6],50 µg/mL
same,MIC,Enterobacter cloacae; [7],12.5 µg/mL
same,MIC,Proteus vulgaris; [8],50 µg/mL
same,MIC,Citrobacter diversus; [9],25 µg/mL
same,MIC,Moraxella catarrhalis; [10],12.5 µg/mL
PRT1175 (AEHACLSDPCHNRGSCKETSLGFECECSPGWTGPTCS; listed as Homo sapiens),MIC E. coli BL21,E. coli BL21; [1],25 µg/mL
same,MIC P. aeruginosa,Pseudomonas aeruginosa; [1],50 µg/mL
same,MIC P. mirabilis,Proteus mirabilis; [1],25 µg/mL
same,MIC,E. coli DH5α,12.5 µg/mL
same,MIC A. hydrophila,Aeromonas hydrophila; [1],50 µg/mL
same,MIC S. marcescens,Serratia marcescens; [1],25 µg/mL
same,MIC K. pneumonia,Klebsiella pneumonia; [1],25 µg/mL
same,MIC E. cloacae,Enterobacter cloacae; [1],12.5 µg/mL
same,MIC P. vulgaris,Proteus vulgaris; [1],50 µg/mL
same,MIC C. diversus,Citrobacter diversus; [1],25 µg/mL
same,MIC M. catarrhalis,Moraxella catarrhalis; [1],12.5 µg/mL
PRT73 (TNGQCQCKENYYKLLAQDTCLPCDCFPHGSHSRTCD; listed as Homo sapiens),MIC (μg/mL) E. coli BL21,"E. coli BL21; 96-well plate, 37° C., 10 h",50 µg/mL
same,MIC (μg/mL) P. aeruginosa,"Pseudomonas aeruginosa; Pseudomonas aeruginosa, 96-well plate, 37° C., 10 h",25 µg/mL
same,MIC (μg/mL) P. mirabilis,"Proteus mirabilis; Proteus mirabilis, 96-well plate, 37° C., 10 h",12.5 µg/mL
same,MIC,E. coli DH5α,25 µg/mL
same,MIC (μg/mL) A. hydrophila,"Aeromonas hydrophila; Aeromonas hydrophila, 96-well plate, 37° C., 10 h",50 µg/mL
same,MIC (μg/mL) S. marcescens,"Serratia marcescens; Serratia marcescens, 96-well plate, 37° C., 10 h",12.5 µg/mL
same,MIC (μg/mL) K. pneumonia,"Klebsiella pneumonia; Klebsiella pneumonia, 96-well plate, 37° C., 10 h",100 µg/mL
same,MIC (μg/mL) E. cloacae,"Enterobacter cloacae; Enterobacter cloacae, 96-well plate, 37° C., 10 h",25 µg/mL
same,MIC (μg/mL) P. vulgaris,"Proteus vulgaris; Proteus vulgaris, 96-well plate, 37° C., 10 h",50 µg/mL
same,MIC (μg/mL) C. diversus,"Citrobacter diversus; Citrobacter diversus, 96-well plate, 37° C., 10 h",12.5 µg/mL
same,MIC (μg/mL) M. catarrhalis,"Moraxella catarrhalis; Moraxella catarrhalis, 96-well plate, 37° C., 10 h",50 µg/mL
PRT192 (CPGSGERRICSHHGVCSNEGKCICQPDWTGKDC; listed as Homo sapiens),MIC (μg/mL) E. coli BL21,E. coli BL21; 10 h cultivation at 37° C.,50 µg/mL
same,MIC (μg/mL) P. aeruginosa,Pseudomonas aeruginosa; [2],25 µg/mL
same,MIC (μg/mL) P. mirabilis,Proteus mirabilis; [3],25 µg/mL
same,MIC,E. coli DH5α,25 µg/mL
same,MIC (μg/mL) A. hydrophila,Aeromonas hydrophila; [4],50 µg/mL
same,MIC (μg/mL) S. marcescens,Serratia marcescens; [5],12.5 µg/mL
same,MIC (μg/mL) K. pneumonia,Klebsiella pneumonia; [6],12.5 µg/mL
same,MIC (μg/mL) E. cloacae,Enterobacter cloacae; [7],25 µg/mL
same,MIC (μg/mL) P. vulgaris,Proteus vulgaris; [8],50 µg/mL
same,MIC (μg/mL) C. diversus,Citrobacter diversus; [9],25 µg/mL
same,MIC (μg/mL) M. catarrhalis,Moraxella catarrhalis; [10],12.5 µg/mL
